Laboratory results reported in ChEMBL document CHEMBL4414627, “Ealamines A-H, a Series of Naphthylisoquinolines with the Rare 7,8'-Coupling Site, from the Congolese Liana Ancistrocladus ealaensis, Targeting Pancreatic Cancer Cells” (J Nat Prod, 2019).
Activity calls are given as the source filed them. No cut-off for these calls is given here.

Columns and labels:
Plasmodium falciparum [1] = experiment: Antiprotozoal activity against chloroquine and pyrimethamine-resistant erythrocytic stage of Plasmodium falciparum K1 assessed as reduction in [3H]hypoxanthine incorporation preincubated for 48 hrs followed by [3H]hypoxanthine addition and measured after 24 hrs by liquid scintillation counting method; assay type: functional, organism-based
[2] = Selectivity index, ratio of IC50 for rat L6 cells to IC50 for chloroquine and pyrimethamine-resistant erythrocytic stage of Plasmodium falciparum K1; assay type: toxicity; conditions: for selectivity ratio: L6 cells, read-out: Ratio IC50
Leishmania donovani = experiment: Antiprotozoal activity against Leishmania donovani MHOM-ET-67/L82 axenic amastigotes incubated for 72 hrs by Alamar blue staining-based fluorometric analysis; assay type: functional, organism-based
[3] = tested on: Trypanosoma brucei rhodesiense; experiment: Antiprotozoal activity against Trypanosoma brucei rhodesiense STIB900 trypomastigotes incubated for 72 hrs by Alamar blue staining-based fluorometric analysis; assay type: functional, organism-based
PANC-1 [4] = experiment: Cytotoxicity against DMEM cultured human PANC1 cells assessed as reduction in cell viability at PC50 incubated for 24 hrs by WST-8 assay; assay type: cell-based; conditions: panc-1, 24 h
PANC-1 [5] = experiment: Cytotoxicity against nutrient deprived human PANC1 cells assessed as induction of cell killing incubated for 24 hrs by WST-8 assay; assay type: functional
L6 = experiment: Cytotoxicity against rat L6 cells assessed as reduction in cell viability incubated for 72 hrs by Alamar blue staining-based fluorometric analysis
Trypanosoma cruzi = experiment: Antiprotozoal activity against Trypanosoma cruzi Tulahuen C4 amastigotes infected in rat L6 cells incubated for 96 hrs by beta-galactosidase reporter gene assay; assay type: functional, organism-based
Plasmodium falciparum [6] = experiment: Antiprotozoal activity against chloroquine-sensitive Plasmodium falciparum NF54; assay type: functional, organism-based
PANC-1 [7] = experiment: Induction of cell death in nutrient deprived human PANC1 cells at 12.5 uM incubated for 24 hrs by acridine orange/ethidium bromide double staining-based fluorescence/phase contrast mode based EVOS FL digital microscopic analysis; assay type: functional
PANC-1 [8] = experiment: Induction of cell morphological changes in nutrient deprived human PANC1 cells assessed as cell rounding at 25 uM incubated for 24 hrs by acridine orange/ethidium bromide double staining-based fluorescence/phase contrast mode based EVOS FL digital microscopic analysis; assay type: functional
PANC-1 [9] = experiment: Induction of cell morphological changes in nutrient deprived human PANC1 cells assessed as cell swelling at 25 uM incubated for 24 hrs by acridine orange/ethidium bromide double staining-based fluorescence/phase contrast mode based EVOS FL digital microscopic analysis; assay type: functional
PANC-1 [10] = experiment: Induction of cell morphological changes in nutrient deprived human PANC1 cells incubated for 24 hrs by acridine orange/ethidium bromide double staining-based fluorescence/phase contrast mode based EVOS FL digital microscopic analysis; assay type: functional
[11] = Selectivity index, ratio of IC50 for rat L6 cells to IC50 for chloroquine-sensitive Plasmodium falciparum NF54; assay type: toxicity; conditions: read-out: Ratio IC50
PANC-1 [12] = experiment: Induction of cell morphological changes in human PANC1 cells assessed as loss of membrane integrity at 12.5 uM incubated for 24 hrs in nutrient deprived medium by acridine orange/ethidium bromide double staining-based fluorescence/phase contrast mode based EVOS FL digital microscopic analysis; assay type: functional
[13] = Trypanosoma brucei, STIB900, 72 h
[14] = Trypanosoma cruzi, Tulahuen C4, L6, 96 h
[15] = Leishmania donovani, MHOM-ET-67/L82, 72 h

With `COc1c(-c2ccc(OC)c3c(OC)cc(C)cc23)c(O)cc2c1[C@@H](C)N[C@H](C)C2` (single isomer, unassigned; atropisomer) [listing 1 of 2 here] as the compound, how does the IC50 (Plasmodium falciparum [1]) read?
The IC50 was 1.6 µM.

What about the “Ratio IC50” value [2] of the same compound?
Its value is 5.6.

And the IC50 (Leishmania donovani)?
The IC50 was 170 µM.

And the IC50 [3]?
The IC50 was 9.8 µM.

What about the Activity (PANC-1 [4]) of the same compound?
Its Activity is “Non-Toxic”.

What about the PC50 (PANC-1 [5]) of the same compound?
Its PC50 is 12.5 µM.

What about the IC50 (L6; l6) of the same compound?
Its IC50 is 9.1 µM.

And the IC50 (Trypanosoma cruzi)?
The IC50 was 73.4 µM.

And the IC50 (Plasmodium falciparum [6])?
Its IC50 is 6.3 µM.

With `COc1cc(C[C@H]2C(=O)OC[C@@H]2Cc2ccc(OC)c(OC)c2)ccc1O` [ARCTIGENIN] as the compound, how does the Activity (PANC-1 [4]) read?
Its Activity is “Non-Toxic”.

And the PC50 (PANC-1 [5])?
The PC50 was 0.8 µM.

Which results are given for `COc1c(-c2ccc(OC)c3c(OC)cc(C)cc23)c(O)cc2c1[C@@H](C)N[C@H](C)C2` [listing 1 of 2 here]?
IC50 (Plasmodium falciparum [1]; Plasmodium falciparum, K1): 1.4 µM; Ratio IC50 [2]: 15; IC50 (Leishmania donovani): 53.4 µM; IC50 [3, 13]: 7.8 µM; PC50 (PANC-1 [5]): 30.6 µM; IC50 (L6; l6): 20.9 µM; IC50 (Trypanosoma cruzi; [14]): 123 µM; IC50 (Plasmodium falciparum [6]; Plasmodium falciparum, NF54): 4.9 µM

Which results are given for `COc1c2c(cc(O)c1-c1ccc(O)c3c(OC)cc(C)cc13)C[C@@H](C)N=C2C`?
Activity (PANC-1 [4]): Non-Toxic; Activity (PANC-1 [5]): Dose-dependent effect; PC50 (PANC-1 [5]): 37.8 µM

Which IC50 (Plasmodium falciparum [1]; Plasmodium falciparum, K1) does the source give for `COc1cc2c(c(O)c1-c1ccc(OC)c3c(OC)cc(C)cc13)[C@@H](C)N[C@H](C)C2` here?
Its IC50 is 8.2 µM.

What about the selectivity ratio [2] of the same compound?
The selectivity ratio was over 30.

What about the IC50 (Leishmania donovani; [15]) of the same compound?
Its IC50 is over 250 µM.

And the IC50 [3, 13]?
Its IC50 is 106 µM.

What about the Activity (PANC-1 [4]) of the same compound?
The Activity was “Non-Toxic”.

What about the Activity (PANC-1 [5]) of the same compound?
The Activity was “Dose-dependent effect”.

What about the PC50 (PANC-1 [5]) of the same compound?
The PC50 was 60.4 µM.

And the IC50 (L6; Rattus norvegicus, L6, 72 h)?
Its IC50 is over 250 µM.

And the IC50 (Trypanosoma cruzi; [14])?
The IC50 was 225 µM.

What about the IC50 (Plasmodium falciparum [6]; Plasmodium falciparum, NF54) of the same compound?
Its IC50 is 22.2 µM.

For `O=C(Cn1ccnc1[N+](=O)[O-])NCc1ccccc1` [BENZNIDAZOLE], which IC50 (Trypanosoma cruzi; [14]) is on record?
Its IC50 is 3.6 µM.

Which Activity (PANC-1 [5]) does the source give for `COc1c(-c2ccc(OC)c3c(OC)cc(C)cc23)c(O)cc2c1[C@@H](C)N[C@H](C)C2` [listing 2 of 2 here] here?
The Activity was “Dose-dependent effect”.

Which Activity (PANC-1 [7]) does the source give for `COc1c(-c2ccc(O)c3c(OC)cc(C)cc23)c(O)cc2c1[C@@H](C)N[C@H](C)C2` here?
Its Activity is “Active”.

What about the Activity (PANC-1 [8]) of the same compound?
Its Activity is 100%.

And the Activity (PANC-1 [9])?
The Activity was 100%.

And the Activity (PANC-1 [10])?
Its Activity is “Dose-dependent effect”.

And the selectivity ratio [11]?
The selectivity ratio was 56.8.

And the IC50 (Leishmania donovani; [15])?
The IC50 was over 250 µM.

And the IC50 [3, 13]?
The IC50 was 9.4 µM.

What about the Activity (PANC-1 [4]) of the same compound?
Its Activity is “Non-Toxic”.

And the Activity (PANC-1 [5])?
The Activity was “Dose-dependent effect”.

What about the PC50 (PANC-1 [5]) of the same compound?
Its PC50 is 9.9 µM.

And the IC50 (L6; Rattus norvegicus, L6, 72 h)?
Its IC50 is 47.7 µM.

And the IC50 (Trypanosoma cruzi; [14])?
Its IC50 is 102 µM.

What about the Activity (PANC-1 [12]) of the same compound?
Its Activity is “Active”.

And the IC50 (Plasmodium falciparum [6]; Plasmodium falciparum, NF54)?
Its IC50 is 0.84 µM.

With `COc1c(-c2ccc(O)c3c(OC)cc(C)cc23)c(O)cc2c1[C@H](C)N[C@H](C)C2` as the compound, how does the Activity (PANC-1 [4]) read?
Its Activity is “Non-Toxic”.

And the Activity (PANC-1 [5])?
The Activity was “Dose-dependent effect”.

And the PC50 (PANC-1 [5])?
Its PC50 is 33.4 µM.

With `COc1cc(O)c(-c2cc(-c3cc(-c4c(O)cc5c(c4OC)[C@H](C)N[C@H](C)C5)c4cc(C)cc(OC)c4c3O)c(O)c3c(OC)cc(C)cc23)c2c1[C@H](C)N[C@H](C)C2` as the compound, how does the IC50 (Plasmodium falciparum [1]; Plasmodium falciparum, K1) read?
Its IC50 is 0.0063 µM.

And the selectivity ratio [2]?
Its selectivity ratio is 1000.

And the IC50 (L6; Rattus norvegicus, L6, 72 h)?
The IC50 was 6 µM.

Which Activity (PANC-1 [5]) does the source give for `COc1c(-c2ccc(OC)c3c(OC)cc(C)cc23)c(O)cc2c1[C@@H](C)N[C@H](C)C2` (single isomer, unassigned; atropisomer) [listing 2 of 2 here] here?
Its Activity is “Dose-dependent effect”.
